No end group written: not given here.
Experiments:
Assay type in all cases: physicochemical
[1] = Solubility study of NA-1 (visual analysis); settings: pH 6.5, 35, 50, 75 and 100 mg/mL, t=0 and t=24 hours
Description: Due to the relatively low Tg temperatures that would likely require a longer lyophilization cycle to dry, we looked at a wider range of standard bulking agents and looked to reduce the fill volume into the container closure system so that there would be a reduced volume of liquid to lyophilize. […] Samples were visually analyzed at 35, 50, 75 and 100 mg/mL. All solutions were clear at t=0 and t=24 hours. […] A wide range of quantities may be required in a vial, but 270 mg would provide a […] dose for a 100 kg patient. Assuming the target reconstitution concentration for patient administration is still 20 mg/mL (but can be from 1 mg/ml to 100 mg/ml), then a 20-mL lyophilization vial containing 270 mg of NA-1 can be used with a reconstitution volume of 13.5 mL. Therefore, optimal volumes of liquid for lyophilization of NA-1 in the vial would be between 2.5 mL and 10 mL.

[2] = 90 mg/mL NA-1 lyophile accelerated stability (small scale 3); settings: histidine buffer concentrations of 50 and 75 mM; further tests; shortened resuspension times
Description: A small batch of NA-1 drug product was lyophilized to evaluate solid state stability after 1 week storage at 25° C. and 60° C. Two 90 mg/mL NA-1 formulations were compounded (buffer and buffer with trehalose). Samples were evaluated for appearance, reconstitution, water content and purity by HPLC (MSA method) at t=0 and t=1 week.
Vials were placed on stability at 25° C. and 60° C. and tested after 1 week of storage.

[3] = Solid state stability of lyophilized 270 mg NA-1 in 20 mM histidine pH 6.5 and 120 mM trehalose; settings: same lyophile; at −20° C.

## YGRKKRRQRRRKLSSIESDV [NA-1]
[1]; NA-1 in Histidine+Trehalose
  solubility (visual analysis of solutions): clear
[1]; NA-1 in Histidine
  solubility (visual analysis of solutions): clear
[2]
  stability of NA-1: good stability
[3]
  stability of the formulation: stable

Reference: patent publication US10912817B2, “Prelyophilized, lyophilized and reconstituted formulations comprising TAT-NR2B9C with d-amino acids, histidine and trehalose” (NoNO Inc., priority 2012, dated 2021)
